From US20190125896A1, “ANTI-INFECTIVE COMPOSITIONS COMPRISING PHYTOGLYCOGEN NANOPARTICLES” (MIREXUS BIOTECHNOLOGIES INC., priority 2016, published 2019)
In brackets after ≈: the same amount, converted by molar mass.

Legend:
[1] = test system: Pseudomonas aeruginosa PAO1; assay: MIC broth micro-dilution; type: cell-based; conditions: P. aeruginosa PAO1, Mueller-Hinton broth, read-out: MIC value established empirically
Procedure: Minimum inhibitory concentration (MIC) assays were done to evaluate antibacterial properties of cationized phytoglycogen. The MIC is defined as “the lowest concentration of an anti-infective agent that prevents visible growth of a micro-organism in an agar or broth dilution susceptibility test”.
MIC assessments against bacteria were performed following broth micro-dilution in accordance with the Clinical and Laboratory Standards Institute document M07-A9: Methods for Dilution Antimicrobial Susceptibility Tests for Bacteria that Grow Aerobically; Approved Standard. A Gram-positive organism, Bacillus subtilis 168, and two Gram-negative organisms, Escherichia coli AB264 (K-12) and Pseudomonas aeruginosa PAO1 were assessed. Long-term stock cultures of organisms were maintained at −80° C. in glycerol (15% vol/vol). Stocks were revived by sub-culturing onto trypticase soy agar plates, grown for 18 hrs at 37° C. and then stored at 4° C. for up to one week. Overnight cultures were grown by inoculating Mueller-Hinton broth with 3-4 colonies from stock plates and incubating for 20-24 hrs at 37° C. and 150 rpm. […] Plates were incubated at 37° C. for 20 h, at which points wells were scored for growth. […] Cationized phytoglycogen, prepared according to the alternative procedure detailed in Example 3, was also assessed in double-dilution increments from 19 to 10 000 μg.ml^−1. […]

[2] = test system: P. aeruginosa PAO1; assay: Sensitization to antibiotics: MIC in medium supplemented with phytoglycogen; type: cell-based, Pseudomonas aeruginosa; conditions: P. aeruginosa
Procedure: MIC assays as defined in Example 15 were performed in sterile and untreated 96 well microtitre plates according to the broth micro-dilution technique described in either the Clinical and Laboratory Standards Institute document M07-A9: Methods for Dilution Antimicrobial Susceptibility Tests for Bacteria that Grow Aerobically; Approved Standard and document M27-A2 Reference Method for Broth Dilution Antifungal Susceptibility Testing of Yeasts; Approved Standard—Second Edition, with the exception that, where indicated, medium was additionally supplemented with native or cationized phytoglycogen. Assessments done using C. utilis ATCC9950, B. subtilis 168 and E. coli AB264 employed native or cationized phytoglycogen at concentrations ⅛, ¼, ½ their respective MIC values for cationized phytoglycogen. Assessments of the opportunistic pathogen P. aeruginosa PAO1 were made at final in-assay concentrations of 0.5, 1 or 10 mg native or cationized phytoglycogen.ml^−1. Experiments were performed as in-assay duplicates, and were repeated a minimum of three times (n=6).
MIC assays were performed in duplicate within each experiment and were repeated a minimum three times to confirm the data (n=6). MIC values with a four-fold or greater change relative to the non-supplemented medium MIC represent a statistically-significant change in MIC value. Only those antibiotic-cationized phytoglycogen combinations which caused a four-fold change relative to the non-supplemented medium MIC were deemed as indicative of resulting in potentiation (MIC value was less), or tolerance (MIC value increased).

[3] = test system: P. aeruginosa PAO1 biofilm; assay: Biofilm eradication: 20 h biofilms treated with antibiotic and cationized phytoglycogen; type: cell-based, Pseudomonas aeruginosa; conditions: 24 h, medium alone
Procedure: Biofilm growth and treatments were performed in sterile 96 well polystyrene plates. Sterile solutions of gamma-irradiated cationized phytoglycogen was prepared by reconstitution and dilution as required in sterile Mueller-Hinton broth. P. aeruginosa PAO1 stocks were revived by sub-culturing P. aeruginosa PAO1 (37° C., 150 rpm, 16-18 h) in Mueller-Hinton broth (Oxoid; Fisher Scientific, Canada). The inoculum was prepared immediately prior to use by diluting in sterile Mueller-Hinton broth to a final in-assay cell density of 5×10^5 CFU.ml^−1. 100 μl of this solution was transferred to wells and incubated (37° C., 150 rpm). Sterile broth was the negative growth control. At 20 h, plates were transferred to a biological safety cabinet, well contents were gently aspirated and the wells rinsed with sterile 0.9% (wt/vol) NaCl. […] Positive growth controls contained inoculated medium, non-supplemented or with 1 or 10 mg cationized phytoglycogen.ml^−1. Plates were incubated at 37° C. for a further 24 h, after which biofilms were quantitated as previously described. Experiments were done in quadruplicate replicate and repeated three times (n=12).

[4] = test system: P. aeruginosa PAO1 biofilm; assay: Biofilm formation at sub-MIC tobramycin; type: cell-based, Pseudomonas aeruginosa; conditions: non-supplemented medium
Procedure: The potential for cationized phytoglycogen to limit enhanced biofilm formation at sub-MIC concentrations of the aminoglycoside tobramycin was assessed in sterile 96 well polystyrene plates. P. aeruginosa PAO1 stocks were revived by sub-culturing P. aeruginosa PAO1 in Mueller-Hinton broth (Oxoid; Fisher Scientific, Canada) and grown for 20-22 h (37° C., 150 rpm). Sterile solutions of gamma-irradiated cationized phytoglycogen was prepared by reconstitution and dilution as required in sterile Mueller-Hinton broth. […] The inoculum was prepared immediately prior to use by diluting in sterile Mueller-Hinton broth, with a final in-assay cell density of 5×10^5 CFU.ml^−1. Plates were incubated statically at 37° C. At 20 h, biofilms were stained and quantitated according to the previously described protocol (Example 23). Experiments were done in quadruplicate replicate and repeated three times (n=12).

For `NC[C@H]1O[C@H](O[C@H]2[C@H](O)[C@@H](O[C@H]3O[C@H](CO)[C@@H](O)[C@H](N)[C@H]3O)[C@H](N)C[C@@H]2N)[C@H](N)C[C@@H]1O` [tobramycin], the MIC [1] was 0.4 µg/mL (≈ 0.856 µM), the “↓ Fold-change in MIC (cationized phytoglycogen) MIC.5 mg/ml” value ([2]; 0.5 mg cationized phytoglycogen · ml^−1 Mueller-Hinton Broth) was 2 fold and the “↓ Fold-change in MIC (cationized phytoglycogen) MIC1 mg/ml” value ([2]; 1 mg cationized phytoglycogen · ml^−1 Mueller-Hinton Broth) was 2 fold. For the same compound, the “↓ Fold-change in MIC (cationized phytoglycogen) MIC10 mg/ml” value ([2]; 10 mg cationized phytoglycogen · ml^−1 Mueller-Hinton Broth) was 1 fold, the MIC ([2]; Pseudomonas aeruginosa, PAO1, non-supplemented Mueller-Hinton Broth, read-out: MIC) was 0.25 µg/mL and the “change in biofilm of 20 h biofilms” value ([3]; 0.125 to 2 times the MIC) was “net increase in biofilm proliferation”. For the same compound, the “reduction of biofilm relative to the initial biofilm” value ([3]; four-fold the MIC) was 40%, the “factor of biofilm accumulation relative to the medium only control” value ([4]; tobramycin at % -MIC) was 1.5 and the “factor of biofilm accumulation relative to the medium only control” value ([4]; tobramycin at ¼-MIC) was 1.33. The “factor of biofilm accumulation relative to the medium only control” value ([4]; tobramycin at ½-MIC) was over 2.00.
